Measured values taken from publication PMC12461331, “Screening of Medicines for Malaria Venture Open Boxes Identifies Potent SARS-CoV‑2 Papain-like Protease (PL^pro) Inhibitors” (ACS Omega, 2025).
Several values for one entry are separate records, joined by “and”; a condition that tells them apart may be missing. Equal values may be shown once. Read-outs that look alike come from different tables or passages of the source.

How the values were obtained:
in vitro [1] = details: human, microsomes, pH 7.4
Plasma stability = details: for half-life at 2 μM: female, BALB/c, mouse, plasma, pH 7.4
[2] = Mouse liver microsomal stability assay; details: CD1, mouse, pH 7.4
[3] = female, BALB/c, mouse, 1 h, 2 μM, pH 7.4
in vitro [4] = details: PAMPA
in vitro [5] = details: CD1, mouse, microsomes, pH 7.4
PL^pro = PL^pro (Severe acute respiratory syndrome coronavirus 2, UniProt P0DTD1); details: 20 μM compound, 5 μM enzyme, average of triplicates with SD
[6] = Human liver microsomal stability assay
[7] = PAMPA
physchem [8] = details: 25 °C, kinetic from dmso stock
physchem [9] = details: pH 7.4
[10] = human, microsomes
SARS-CoV-2 = details: Vero CCL-81 cells
SARS-CoV-2 PL^pro = SARS-CoV-2 PL^pro (Severe acute respiratory syndrome coronavirus 2, UniProt P0DTD1); assay type: biochemical
Kinetic solubility = details: 25 °C, kinetic from dmso stock
[11] = Parallel artificial membrane permeability assay (PAMPA)
[12] = Chromatographic distribution coefficient (eLogD7.4); details: pH 7.4
[13] = human, liver microsomes, pH 7.4

Row | SMILES | microsomal CLint at 0.5 μM (in vitro [1]) | half-life at 2 μM (Plasma stability) | half-life at 0.5 μM ([2]; liver microsomes) | plasma stability remaining 60 min [3] | Papp at 5 h, 10 μM (in vitro [4]) | microsomal CLint at 0.5 μM (in vitro [5]) | ΔT m (PL^pro) | half-life at 0.5 μM [6, 13] | permeability (in words) [7] | solubility kinetic at 24 h (physchem [8]; pH 2, aqueous buffer) | solubility kinetic at 24 h (physchem [8]; pH 7.4, aqueous buffer) | chromatographic logD (physchem [9]) | inhibition of SARS-CoV-2 PL^pro (SARS-CoV-2 PL^pro) | other results
1 | COc1ccc(CC(=O)NC2CCN([C@H](C)c3cccc4ccccc34)CC2)cc1 [Compound 6] | 88.4 µL/min/mg | 38.5 h | 16.2 min | 90.29% | 1.74 ×10⁻⁶ cm/s | 171 µL/min/mg | 4.8 °C and 4.8 ± 0.1 °C | 31.4 min | highly permeable | > 24.9 µg/mL | > 12.7 µg/mL | 4.28 |  | 
2 | COc1ccc(CNC(=O)C2CCN([C@H](C)c3ccccc3)CC2)cc1 [Compound 3] | 12 µL/min/mg |  | 29.5 min | 83.80% | 2.35 ×10⁻⁶ cm/s | 94 µL/min/mg | 0.06 °C and 0.06 ± 0.05 °C | 231 min | highly permeable | > 22.1 µg/mL | > 22.3 µg/mL | 3 |  | metabolic stability (in words) [10]: improved stability
3 | N=C(N)NCCCCC(=O)Nc1cc(C(F)(F)F)cc(NC(=O)c2cc(C(=O)Nc3cc(C(F)(F)F)cc(NC(=O)CCCCNC(=N)N)c3O[C@@H]3CCNC3)ncn2)c1O[C@@H]1CCNC1 [Brilacidin, reference compound] |  |  |  |  |  |  |  |  |  |  |  |  | ≥ 80% | decrease of viral replication (viral load by RT-PCR) (SARS-CoV-2; 1 μM): over 50%
4 | COc1ccc(CNC(=O)C2CCN(C(C)c3cccc4ccccc34)CC2)cc1 (stereo not shown) [MMV1634397] |  | 7.22 h |  |  |  |  | 6.26 °C and 6.3 ± 0.3 °C |  |  |  |  |  | ≥ 80% | plasma stability remaining 60 min (Plasma stability; mouse plasma, 60 min): 54.08%; decrease of viral replication (viral load by RT-PCR) (SARS-CoV-2; 10 μM): over 50%; half-life at 0.5 μM ([2]; microsomes): 21.5 min; microsomal CLint at 0.5 μM ([2]; microsomes): 129 µL/min/mg; solubility kinetic at 24 h (Kinetic solubility; pH 2, aqueous buffer): > 24.6 µg/mL; solubility kinetic at 24 h (Kinetic solubility; pH 7.4, aqueous buffer): > 21.6 µg/mL; HLM CLint(mic) ([6]; human liver microsomes): 80.40 µL/min/mg; HLM T 1/2 ([6]; human liver microsomes): 34.48 min; microsomal CLint at 0.5 μM ([6]; human, microsomes, pH 7.4, HLM CLint(mic), human liver microsomes): 80 µL/min/mg; half-life at 0.5 μM ([6]; human, microsomes, pH 7.4, HLM T 1/2, human liver microsomes): 35 min; metabolic stability (in words) ([6]; liver microsomes): moderately stable; Papp at 5 h, 10 μM [11]: 1.07 ×10⁻⁶ cm/s; permeability (in words) [11]: medium to low permeable; chromatographic logD [12]: 4.17
